This assay concerns ATF4 luciferase reporter in HEK293T cells. Description: ATF4-Luc assay (ATF4 luciferase reporter, tunicamycin-treated HEK293T cells). It counts as cell-based, human. The following applies: Homo sapiens, HEK-293T; HEK293T cells carrying the ATF4 luciferase reporter, 1 μg/mL tunicamycin, 7 hours. In general terms: A reporter such as luciferase makes a cellular process visible.

The source of these data is patent US20240166652A1, “MODULATORS OF THE INTEGRATED STRESS PATHWAY” (Calico Life Sciences LLC, priority 2017, published 2024).

pEC50: −log10 of the molar value.

Broadly, the pEC50 is −log10 of the EC50, conventionally taken in molar units. Take `O=C(COc1ccccc1)NC12CCC(NC(=O)COc3ccc(Cl)c(F)c3)(CC1)[C@@H](O)C2` [Compound 840, 2-(4-chloro-3-fluorophenoxy)-N-[(2S)-2-hydroxy-4-(2-phenoxyacetamido)bicyclo[2.2.2]octan-1-yl]acetamide]: the pEC50 is more than 8.00. On to `O=C(CCOc1ccc(Cl)c(F)c1)NC12CC(NC(=O)COc3ccc(Cl)c(F)c3)(C1)C2` [Compound 730, 3-(4-chloro-3-fluorophenoxy)-N-{3-[2-(4-chloro-3-fluorophenoxy)acetamido]bicyclo[1.1.1]pentan-1-yl}propanamide], for which the pEC50 is 7.30 to 8.00. The same measure for `O=C(COc1ccc(Cl)c(F)c1)NC12CCC(NC(=O)COc3ccc(OC(F)(F)F)c(F)c3)(CC1)[C@@H](O)C2` [Compound 750, 2-(4-chloro-3-fluorophenoxy)-N-[(3S)-4-{2-[3-fluoro-4-(trifluoromethoxy)phenoxy]acetamido}-3-hydroxybicyclo[2.2.2]octan-1-yl]acetamide]: more than 8.00. The figure for `COc1ncc(OCC(=O)NC23CCC(NC(=O)COc4ccc(F)c(F)c4)(CC2)[C@@H](O)C3)cn1` [Compound 634, 2-(3,4-difluorophenoxy)-N-[(2S)-2-hydroxy-4-{2-[(2-methoxypyrimidin-5-yl)oxy]acetamido}bicyclo[2.2.2]octan-1-yl]acetamide] is 6.60 to 7.30. Turning to `O=C(COc1cccc(OC(F)F)c1)NC12CC(NC(=O)COc3ccc(Cl)c(F)c3)(C1)C2` [Compound 396, 2-(4-chloro-3-fluorophenoxy)-N-(3-{2-[3-(difluoromethoxy)phenoxy]acetamido}bicyclo[1.1.1]pentan-1-yl)acetamide], the pEC50 is 7.30 to 8.00.

As to `O=C(COc1ccc(Cl)c(F)c1)NC12CC(NC(=O)C(=O)Cc3ccc(Cl)cc3)(C1)C2` [Compound 312, N-{3-[2-(4-chloro-3-fluorophenoxy)acetamido]bicyclo[1.1.1]pentan-1-yl}-3-(4-chlorophenyl)-2-oxopropanamide], the pEC50 is 6.60 to 7.30. The figure for `CC(C)(CNC12CC(NC(=O)COc3ccc(Cl)c(F)c3)(C1)C2)Oc1ccc(Cl)cc1` [Compound 641, 2-(4-chloro-3-fluorophenoxy)-N-(3-{[2-(4-chlorophenoxy)-2-methylpropyl]amino}bicyclo[1.1.1]pentan-1-yl)acetamide] is less than 5.70. Consider `O=C(COc1ccc(Cl)c(F)c1)N[C@@H]1CC[C@]2(NC(=O)COc3ccc(Cl)c(F)c3)CC[C@H]1C2` (racemic) [Compound 653, rac-N,N′-[(1S,4S,5R)-bicyclo[3.2.1]octane-1,4-diyl]bis[2-(4-chloro-3-fluorophenoxy)acetamide]], for which the pEC50 was more than 8.00.

In the case of `O=C(COc1ccc(C(F)(F)F)nc1)NC12CCC(NC(=O)COc3ccc(C(F)(F)F)nc3)(CC1)[C@@H](O)C2` [Compound 541, N,N′-[(2S)-2-hydroxybicyclo[2.2.2]octane-1,4-diyl]bis(2-{[6-(trifluoromethyl)pyridin-3-yl]oxy}acetamide)], the pEC50 was 7.30 to 8.00.

With `O=C(COc1ccc(Cl)c(F)c1)NC12CC(NS(=O)(=O)Cc3cc(F)cc(F)c3)(C1)C2` [Compound 484, 2-(4-chloro-3-fluorophenoxy)-N-(3-{[(3,5-difluorophenyl)methanesulfonyl]amino}bicyclo[1.1.1]pentan-1-yl)acetamide], the pEC50 was less than 5.70. Regarding `CC(=O)N(CC(=O)NC12CC(NC(=O)COc3ccc(Cl)c(F)c3)(C1)C2)c1ccc(Cl)cc1` [Compound 205, M-acetyl-N-{3-[2-(4-chloro-3-fluorophenoxy)acetamido]bicyclo-[1.1.1]pentan-1-yl}-N^2-(4-chlorophenyl)glycinamide], the pEC50 was less than 5.70. As to `O=C(COc1ccc(Cl)c(F)c1)NC12CCC(NC(=O)COc3ccc(Cl)cc3)(CC1)[C@@H](O)C2` [Compound 454, 2-(4-chloro-3-fluorophenoxy)-N-{(3S)-4-[2-(4-chlorophenoxy)acetamido]-3-hydroxybicyclo[2.2.2]octan-1-yl}acetamide], the pEC50 was more than 8.00. As to `O=C(COc1ccc(Cl)c(F)c1)NC12CC(NC(=O)[C@H](O)c3ccc(Cl)cc3)(C1)C2` [Compound 315, (2R)—N-{3-[2-(4-chloro-3-fluorophenoxy)acetamido]bicyclo[1.1.1]pentan-1-yl}-2-(4-chlorophenyl)-2-hydroxyacetamide], the pEC50 was 5.70 to 6.30. With `O=C(COc1ccc(F)c(F)c1)NC12CCC(NC(=O)COc3ccc(Cl)cc3)(CC1)[C@@H](O)C2` [Compound 813, 2-(4-chlorophenoxy)-N-{(2S)-4-[2-(3,4-difluorophenoxy)acetamido]-2-hydroxybicyclo[2.2.2]octan-1-yl}acetamide], the pEC50 was more than 8.00. Take `CO[C@@H]1C[C@]2(NC(=O)COc3ccc(Cl)c(F)c3)CC[C@@]1(NC(=O)COc1ccc(Cl)c(F)c1)CC2O` (mixture of isomers) [Compound 554, rac-N,N′-[(1R,4R,5R)-2-hydroxy-5-methoxybicyclo[2.2.2]octane-1,4-diyl]bis[2-(4-chloro-3-fluorophenoxy)acetamide]]: the pEC50 is more than 8.00. For `O=C(COc1ccc(Cl)c(F)c1)NC12CC(NC(=O)COc3ccc(Cl)c(F)c3)(C1)C2` [Compound 186, N,N′-(bicyclo[1.1.1]pentane-1,3-diyl)bis[2-(4-chloro-3-fluorophenoxy)acetamide]], the pEC50 was more than 8.00. The figure for `COCCN1C(=O)C2(NC(=O)COc3ccc(Cl)c(F)c3)CCC1(NC(=O)COc1ccc(Cl)c(F)c1)CC2` [Compound 676, N,N′-[2-(2-methoxyethyl)-3-oxo-2-azabicyclo[2.2.2]octane-1,4-diyl]bis[2-(4-chloro-3-fluorophenoxy)acetamide]] is 6.30 to 6.60.

For `O=C(COc1ccc(Cl)c(F)c1)NC12CC(NC(=O)COc3cnc4cc[nH]c4c3)(C1)C2` [Compound 254, 2-(4-chloro-3-fluorophenoxy)-N-(3-{2-[(1H-pyrrolo[3,2-b]pyridin-6-yl)oxy]acetamido}bicyclo[1.1.1]pentan-1-yl)acetamide], the pEC50 was 6.30 to 6.60.

For `O=C(COc1cnc(OCC(F)(F)F)nc1)NC12CCC(NC(=O)COc3ccc(Cl)c(F)c3)(CC1)[C@@H](O)C2` [Compound 629, 2-(4-chloro-3-fluorophenoxy)-N-[(2S)-2-hydroxy-4-(2-{[2-(2,2,2-trifluoroethoxy)pyrimidin-5-yl]oxy}acetamido)bicyclo[2.2.2]octan-1-yl]acetamide], the pEC50 is 6.60 to 7.30. The same measure for `O=C(O)CN(CC(=O)NC12CC(NC(=O)COc3ccc(Cl)c(F)c3)(C1)C2)c1ccc(Cl)cc1` [Compound 684, {[2-({3-[2-(4-chloro-3-fluorophenoxy)acetamido]bicyclo[1.1.1]pentan-1-yl}amino)-2-oxoethyl](4-chlorophenyl)amino}acetic Acid]: less than 5.70. Consider `O=C(CCc1ccc(Cl)cc1)NC12CC(NC(=O)COc3ccc(Cl)c(F)c3)(C1)C2` [Compound 102, N-{3-[2-(4-chloro-3-fluorophenoxy)acetamido]bicyclo[1.1.1]pentan-1-yl}-3-(4-chlorophenyl)propanamide], for which the pEC50 was 6.60 to 7.30. The same measure for `CN(C)c1cccc(COCC(=O)NC23CC(NC(=O)COc4ccc(Cl)c(F)c4)(C2)C3)c1` [Compound 141]: 5.70 to 6.30. The same measure for `O=C(COc1ccc(Cl)c(F)c1)NC12CCC(OCc3ccc(Cl)cc3)(CC1)CC2O` (centres unmarked) [Compound 565, 2-(4-chloro-3-fluorophenoxy)-N-{4-[(4-chlorophenyl)methoxy]-2-hydroxybicyclo[2.2.2]octan-1-yl}acetamide]: 5.70 to 6.30.
